Assay results: patent US8106208B2, “Benzamide compounds that act as NK receptor antagonists” (Albireo AB, priority 2006, dated 2012)

Key:
[1] = Metabolic stability in liver microsomes (intrinsic clearance); assay type: in vitro ADME; conditions: human, pH 7.4, 37° C., read-out: CLint (HLM)
Experimental: The rate of biotransformation can be measured as either metabolite(s) formation or the rate of disappearance of the parent compound. The experimental design involves incubation of low concentrations of substrate (usually 1.0 μM) with liver microsomes (usually 0.5 mg/ml) and taking out aliquots at varying time points (usually 0, 5, 10, 15, 20, 30, 40 min.). The test compound is usually dissolved in DMSO. The DMSO concentration in the incubation mixture is usually 0.1% or less since more solvent can drastically reduce the activities of some CYP450s. Incubations are done in 100 mM potassium phosphate buffer, pH 7.4 and at 37° C. Acetonitrile or methanol is used to stop the reaction. The parent compound is analysed by HPLC-MS. From the calculated half-life, t1/2, the intrinsic clearance, Clint, is estimated by taking microsomal protein concentration and liver weight into account.

human NK1 receptor = target: T1, human NK1 receptor (Homo sapiens, UniProt P25103); test: FLIPR assay, inhibition of human NK1 receptor activation (intracellular Ca2+ increase); assay type: cell-based; conditions: CHO cells with human NK1 receptor; agonist Substance P; pKB converted from IC50
T1 construct: expressed in transfected cells; from AstraZeneca R&D Wilmington
T1 sequence (P25103 whole entry): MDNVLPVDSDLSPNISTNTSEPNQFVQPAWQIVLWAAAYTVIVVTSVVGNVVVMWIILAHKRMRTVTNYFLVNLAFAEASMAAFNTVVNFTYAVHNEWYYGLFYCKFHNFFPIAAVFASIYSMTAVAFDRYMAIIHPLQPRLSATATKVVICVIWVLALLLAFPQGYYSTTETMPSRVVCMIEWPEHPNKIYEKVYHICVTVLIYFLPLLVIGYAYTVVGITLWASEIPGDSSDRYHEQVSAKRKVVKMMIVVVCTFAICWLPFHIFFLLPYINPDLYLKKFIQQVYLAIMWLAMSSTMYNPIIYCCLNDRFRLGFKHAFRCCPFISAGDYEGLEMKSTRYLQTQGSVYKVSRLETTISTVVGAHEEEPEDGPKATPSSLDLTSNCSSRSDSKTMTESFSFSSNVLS
Experimental: (§1) Chinese Hamster Ovary (CHO) K1 cells (obtained from ATCC) were stably transfected with the human NK2 receptor (hNK2R cDNA in pRc/CMV, Invitrogen) or the human NK3 receptor (hNK3R in pcDNA 3.1/Hygro (+)/IRES/CD8, Invitrogen vector modified at AstraZeneca EST-Bio UK, Alderley Park). The cells were transfected with the cationic lipid reagent LIPOFECTAMINE™ (Invitrogen) and selection was performed with Geneticin (G418, Invitrogen) at 1 mg/ml for the hNK2R transfected cells and with Hygromycin (Invitrogen) at 500 μg/ml for the hNK3R transfected cells. Single cell clones were collected by aid of Fluorescence Activated Cell Sorter (FACS), tested for functionality in a FLIPR assay (see below), expanded in culture and cryopreserved for future use. CHO cells stably transfected with human NK1 receptors originates from AstraZeneca R&D, Wilmington USA. Human NK1 receptor cDNA (obtained from RNA-PCR from lung tissue) was subcloned into pRcCMV (Invitrogen). Transfection was performed by Calcium Phosphate and selection with 1 mg/ml G418. […]
(§2) The activity of a compound of the invention to inhibit NK1/NK2/NK3 receptor activation measured as NK1/NK2/NK3 receptor mediated increase in intracellular Ca^2+ was assessed by the following procedure: […]

[2] = target: hERG-encoded potassium channel (Homo sapiens, UniProt Q12809); test: Activity against hERG (planar-array-based voltage clamp, Kiss et al.); assay type: cell-based
Sequence of hERG-encoded potassium channel (Q12809 whole entry): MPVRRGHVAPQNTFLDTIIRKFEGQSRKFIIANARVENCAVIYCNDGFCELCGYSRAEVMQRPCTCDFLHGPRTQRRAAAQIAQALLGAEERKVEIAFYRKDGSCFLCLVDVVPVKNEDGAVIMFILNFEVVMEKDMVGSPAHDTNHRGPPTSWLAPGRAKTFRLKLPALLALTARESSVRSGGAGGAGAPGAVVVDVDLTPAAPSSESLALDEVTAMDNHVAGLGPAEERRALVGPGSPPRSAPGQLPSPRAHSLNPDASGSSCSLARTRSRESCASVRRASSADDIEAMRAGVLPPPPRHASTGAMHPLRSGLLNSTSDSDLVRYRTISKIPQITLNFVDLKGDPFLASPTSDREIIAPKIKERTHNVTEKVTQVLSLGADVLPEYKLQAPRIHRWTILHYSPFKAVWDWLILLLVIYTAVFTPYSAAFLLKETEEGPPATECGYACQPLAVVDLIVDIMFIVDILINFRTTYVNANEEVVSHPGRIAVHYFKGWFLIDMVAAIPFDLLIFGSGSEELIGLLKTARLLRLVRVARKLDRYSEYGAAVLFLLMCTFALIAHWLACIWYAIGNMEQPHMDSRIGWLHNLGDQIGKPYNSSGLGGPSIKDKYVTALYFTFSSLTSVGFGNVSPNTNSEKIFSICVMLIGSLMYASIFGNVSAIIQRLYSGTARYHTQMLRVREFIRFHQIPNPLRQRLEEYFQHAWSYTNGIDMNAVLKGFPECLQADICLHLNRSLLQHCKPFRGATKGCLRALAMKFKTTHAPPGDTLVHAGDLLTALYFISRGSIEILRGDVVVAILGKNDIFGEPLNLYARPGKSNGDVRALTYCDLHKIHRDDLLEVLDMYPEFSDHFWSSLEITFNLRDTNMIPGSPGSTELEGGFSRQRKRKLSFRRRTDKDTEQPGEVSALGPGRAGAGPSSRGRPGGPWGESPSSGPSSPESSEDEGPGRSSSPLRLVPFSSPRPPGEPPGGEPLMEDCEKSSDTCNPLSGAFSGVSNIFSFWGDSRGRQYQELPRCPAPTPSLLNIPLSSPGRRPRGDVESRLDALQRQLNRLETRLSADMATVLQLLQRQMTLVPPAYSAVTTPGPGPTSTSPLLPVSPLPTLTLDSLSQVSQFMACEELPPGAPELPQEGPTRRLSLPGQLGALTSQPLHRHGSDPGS
Description: The activity of compounds according to formula I against the hERG-encoded potassium channel can be determined according to Kiss L, et al. Assay Drug Dev Technol. 1 (2003), 127-35: “High throughput ion-channel pharmacology: planar-array-based voltage clamp”.

CYP3A4 = CYP3A4 (Homo sapiens, UniProt P08684); test: CYP3A4 inhibition (according to Bapiro et al.); assay type: in vitro ADME
Sequence of CYP3A4 (P08684 whole entry): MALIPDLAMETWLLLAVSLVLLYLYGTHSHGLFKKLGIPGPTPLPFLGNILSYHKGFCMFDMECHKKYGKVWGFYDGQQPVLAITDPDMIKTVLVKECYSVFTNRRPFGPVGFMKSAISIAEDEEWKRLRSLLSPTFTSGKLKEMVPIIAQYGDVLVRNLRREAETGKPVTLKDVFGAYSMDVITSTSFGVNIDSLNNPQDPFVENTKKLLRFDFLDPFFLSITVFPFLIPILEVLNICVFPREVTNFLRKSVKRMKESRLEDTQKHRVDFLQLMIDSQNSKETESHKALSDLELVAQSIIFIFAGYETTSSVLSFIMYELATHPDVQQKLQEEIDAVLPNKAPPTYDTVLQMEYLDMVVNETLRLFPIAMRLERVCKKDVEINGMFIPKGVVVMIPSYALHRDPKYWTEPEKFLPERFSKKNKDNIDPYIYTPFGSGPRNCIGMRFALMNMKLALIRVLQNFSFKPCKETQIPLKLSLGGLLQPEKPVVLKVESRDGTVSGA
Experimental: The IC50 values tested according to Bapiro et al; Drug Metab. Dispos. 29, 30-35 (2001) were generally greater than 10 μM.

human NK2 receptor = target: T2, human NK2 receptor (Homo sapiens, UniProt P21452); test: FLIPR assay, inhibition of human NK2 receptor activation (intracellular Ca2+ increase); assay type: cell-based; conditions: CHO cells with human NK2 receptor; agonist NKA; pKB converted from IC50
T2 construct: expressed in transfected cells
T2 sequence (P21452 1-398): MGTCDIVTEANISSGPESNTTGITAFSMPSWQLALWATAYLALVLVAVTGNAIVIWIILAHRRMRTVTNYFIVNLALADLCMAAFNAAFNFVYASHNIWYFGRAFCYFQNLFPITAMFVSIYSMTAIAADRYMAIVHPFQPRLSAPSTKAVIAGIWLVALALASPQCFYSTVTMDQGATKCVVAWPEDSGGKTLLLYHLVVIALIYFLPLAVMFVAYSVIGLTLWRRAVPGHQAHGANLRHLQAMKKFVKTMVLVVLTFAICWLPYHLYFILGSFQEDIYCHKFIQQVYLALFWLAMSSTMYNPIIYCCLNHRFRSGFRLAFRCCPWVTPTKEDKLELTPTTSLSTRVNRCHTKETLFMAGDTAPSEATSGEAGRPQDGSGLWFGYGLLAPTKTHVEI
Experimental: as §1, §2

human NK3 receptor = target: T3, human NK3 receptor (Homo sapiens, UniProt P29371); test: FLIPR assay, inhibition of human NK3 receptor activation (intracellular Ca2+ increase); assay type: cell-based; conditions: CHO cells with human NK3 receptor; agonist Pro-7-NKB; pKB converted from IC50
T3 construct: expressed in transfected cells
T3 sequence (P29371 1-465): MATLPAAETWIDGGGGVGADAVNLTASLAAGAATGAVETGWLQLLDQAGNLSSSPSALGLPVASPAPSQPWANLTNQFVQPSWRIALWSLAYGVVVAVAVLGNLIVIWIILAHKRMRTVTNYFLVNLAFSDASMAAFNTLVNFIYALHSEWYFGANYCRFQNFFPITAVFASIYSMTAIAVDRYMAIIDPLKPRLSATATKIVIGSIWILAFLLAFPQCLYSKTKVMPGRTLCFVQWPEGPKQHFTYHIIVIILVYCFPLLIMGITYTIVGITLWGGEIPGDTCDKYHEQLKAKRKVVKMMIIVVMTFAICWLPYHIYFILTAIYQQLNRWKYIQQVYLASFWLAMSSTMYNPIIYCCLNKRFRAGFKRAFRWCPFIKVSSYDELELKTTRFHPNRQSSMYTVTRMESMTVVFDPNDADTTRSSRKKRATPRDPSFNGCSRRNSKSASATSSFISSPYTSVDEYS
Experimental: as §1, §2

[3] = tested on: Human Neurokinin-2 (NK2) Receptor; conditions: Bioorganic & Medicinal Chemistry Letters (2003), 13, 2211-2215; cited from earlier work

Row | Structure (SMILES) | microsomal CLint at 1 μM [1] | Kb (human NK1 receptor) | IC50 [2] | IC50 (CYP3A4) | Kb (human NK2 receptor) | Kb (human NK3 receptor) | functional NK2 receptor antagonistic properties [3]
1 | CN(C[C@@H](CCN1CC(N2CCC(C(=O)N3CCC3)CC2)C1)c1ccc(F)cc1)C(=O)c1cc(Br)cc(C(F)(F)F)c1 [Ex 1, N-[(2S)-4-{3-[4-(Azetidin-1-ylcarbonyl)piperidin-1-yl]azetidin-1-yl}-2-(4-fluorophenyl)butyl]-3-bromo-N-methyl-5-(trifluoromethyl)benzamide] | 23 µL/min/mg | 20 nM | 11000 nM | 13500 nM | 2.51 nM | 3.98 nM | 
2 | CN(CC(CCN1CC(N2CCOCC2)C1)c1ccc(Cl)c(Cl)c1)C(=O)c1ccccc1 (stereo not shown) [N-[2-(3,4-dichlorophenyl)-4-(3-morpholin-4-ylazetidin-1-yl)butyl]-N-methylbenzamide] |  |  |  |  |  |  | functional NK2 receptor antagonistic properties
